The text below walks through data of patent US20090028847A1, “MULTIPLE MYELOMA AND AL AMYLOID IMMUNOTHERAPY TARGETING IMMUNOGLOBULIN LIGHT CHAINS AND USES THEREOF” (TRUSTEES OF BOSTON UNIVERSITY, priority 2007, published 2009).

Experiment [1] deals with B cell lymphoblastoma (JY) cells pulsed with peptide. Nature of the experiment: Chromium-release killing assay with CTL from peptide-immunized HHD mice, peptide-pulsed JY targets. Type of experiment: ex vivo. Conditions: for CTL lysis of peptide-pulsed target cells: T cells of HHD mice immunized with the peptide, not with negative control peptide. Here is the method: (§1) Mice: HHD mice on […] background, transgenic for human MHC Class I (α1 and α2 domains from HLAA*0201, α3 domain from […]) and knockout of H2-D^b (mouse MHC Class I).
(§2) Immunizations: 200 μg peptide plus 200 μg HBVc “helper” peptide (to elicit CD4+ T cell help), emulsified in […] Freud's Adjuvant (IFA) is used to immunize the HHD mice subcutaneously in the lower abdominal area.
(§3) Mouse T Cell Culture: Spleens were harvested from the mice and dissociated using sterile frosted glass slides to yield single-cell suspension. Spleenocytes are plated at approximately 1×10^6 cells/ml and 10% FBS supplemented with L-glutamine, non-essential amino acids and β2-mercaptoethanol. Ex vivo cells were stimulated with 10 μg/ml peptide and fed every 2-3 days with medium and 2 ng/ml rIL-2 for 7-10 days.
Cell Lines: Human cell lines which naturally express the HLAA*0201 allele of MHC Class I are grown in RPMI 1640 and 10% FBS supplemented with L-glutamine. Cell lines include the JY and U66 lymphobastoma cell lines of B cell origin and the T2 cell line of T cell origin.
Killing Assay: Target cell lines are loaded with radioactive sodium chromate (^51Cr) and pulsed with 20 μg/ml peptide or as a negative control peptide, flu matrix protein MP-58. Spleen cells are plated with targets at various effector target ratios and incubated at 37° C., 5% CO2 overnight. Supernatants are harvested from each well and assayed for radioactive chromium indicating release from lysed cells. % specific lysis was determined by subtracting the control minimum release from experimental wells and dividing by maximum-minimum release.
Statistics: Statistical analysis was performed with Statview. Data from killing assays of a minimum of three mice are presented as means ± standard errors (SE). ANOVA was used to determine the statistical significance compared to the negative control peptide.

Experiment [2] deals with HLA-A2 (Homo sapiens, UniProt P04439, D140Y/D185E/D98H/E176V/E277Q/G131W/G231S/I119V/I121R/I166T/I218V/L300P/L318F/N151K/N90K/P208A/P217A/Q86G/Q94H/R138H/R169H/T345S). Nature of the experiment: Cell-based fluorescence peptide/MHC (HLA-A2) binding and stability assay. Conditions: for peptide binding to HLA-A2: FIG. 1, fluorescence shift (FL1) in presence vs absence of peptide. An excerpt: The native Ig λ62-10 is shown in panel A, and the heteroclitic Ig λ62-10 is show in panel B, with the shift to the right (filled in curve) in the presence of the compared to their absence (unfilled curve) indicating Ig λ62-10 peptide binding to HLA-A2 (FL1).
The inventors discovered, using Ig light chain sequencing studies with bone marrow aspirates from 264 AL amyloid subjects the relative frequency of light chain subtypes in AL amyloidosis. Selecting the over-represented light chains in AL amyliod subjects, the inventors evaluated the affinity for formation of stable complexes for the HLA-A*0201 (HLA-A2)-binding peptides using three algorithms to predict the stability of peptide-MHC class I complexes. One such subtype (lambda 6; 16% of all AL amyloidosis cases) contains a conserved framework I sequence (lambda 6 (2-10)) predicted to bind stably to HLA-A2. The inventors confirmed this prediction using a standard fluorescence assay. Subsequently, the inventors tested the ability to induce CTL capable of lysing peptide-pulsed or Ig lambda 6-expressing human B cell tumors by immunizing HLA-A2 transgenic, (HHD) mice (Firat et al, 1999) with the lambda 6 (2-10) peptide. The investigators also tested the ability of lambda 6 (2-10) peptide-induced CTL to cross-react with plasma cells expressing a related lambda light chain subtype (lambda 2). Using public web-based algorithms we identified potential immunogenic peptides from a human immunoglobulin light chain (lambda 6) which causes 16-20% of all AL amyloidosis. Culture based assays supported the likelihood that the identified peptide would be immunogenic.

For experiment [3], the system named is JY cells transfected with full length λ6 gene. Nature of the experiment: Chromium-release killing assay with CTL from peptide-immunized HHD mice, JY cells transfected with full length λ6 gene. Conditions: FIG. 4. Type of experiment: in vivo. Here is the method:
as §1, §2, §3
(§4) Cell Lines: Human cell lines which naturally express the HLAA*0201 allele of MHC Class I are grown in RPMI 1640 and 10% FBS supplemented with L-glutamine. […]
(§5) Killing Assay: Target cell lines are loaded with radioactive sodium chromate (^51Cr) and pulsed with 20 μg/ml peptide or as a negative control peptide, flu matrix protein MP-58. […] Supernatants are harvested from each well and assayed for radioactive chromium indicating release from lysed cells. % specific lysis was determined by subtracting the control minimum release from experimental wells and dividing by maximum-minimum release. […]

In experiment [4] the test system is Ig λ2-expressing U266 multiple myeloma plasma cells. Description: Chromium-release killing assay with CTL from peptide-immunized HHD mice, U266 targets. Type of experiment: ex vivo. Conditions: FIG. 5. Here is the method:
as §1, §2, §3, §4, §5

The target of experiment [5] is T1, HLA-A*0201 (HLA-A2) on cells (human).
T1 construct: whole, on cells; also called MHC Class I
Description: flow cytometry, HLA-A2 fluorescence (FL1) on cells with and without peptide.

Setting [6] is: T cells of HHD mice immunized with the peptide.

“YLFPRLYPV (listed as Mus musculus) [heteroclitic mBlimp470-478, heteroclitic variant of mBlimp470-478]”: the “CTL lysis of peptide-pulsed target cells” value in experiment [1] is reported as “lysed target cells pulsed with the hc murine Blimp470-478 peptide”. The “mice that produced a CTL response” value in experiment [1] (of 10 mice immunized, FIG. 8) is 7 mice.

For the molecule “SLFPRLYPV (listed as Mus musculus) [mBlimp470-478, native peptide of the murine Blimp-1 protein]”, the “CTL lysis of peptide-pulsed target cells” value in experiment [1] is given as “lysed target cells pulsed with the native murine Blimp470-478 peptide”. In addition, the “mice that produced a CTL response” value in experiment [1] (of 12 mice immunized, FIG. 7) is reported as 10 mice.

As for “YMLTQPHSV [het λ62-10, heteroclitic variant of lambda 6(2-10), substitution at position 1]”, the results for the “peptide binding to HLA-A2” value in experiment [2] (listed as YMLTQPHSV (SEQ ID NO: 2)) and in experiment [2] (listed as heteroclitic Ig λ62-10) were “higher affinity” and “binds to HLA-A2”, respectively. Further, the “stability of peptide/MHC complex” value in experiment [2] (FIG. 9, as early as 2 hours and over at least 24 hours) was “more stable than the native lambda 6 peptide”. Further, the “CTL lysis of peptide-pulsed target cells” value in experiment [1] is reported as “lysed target cells pulsed with either heteroclitic λ6 peptide or the native λ6 peptide”. The “mice that produced a CTL response” value in experiment [1] (of 8 mice immunized, FIG. 3) amounted to 7 mice.

As for “FMLTQPHSV [λ62-10, 9mer from framework 1 of the human lambda 6 immunoglobulin light chain]”, in experiment [2], the “peptide binding to HLA-A2” value was “binds to HLA-A2”. Moreover, the “CTL lysis of peptide-pulsed target cells” value in experiment [1] was “lysed target cells pulsed with the λ6 peptide”. Also, the “mice that produced a CTL response” value in experiment [1] (of 24 mice immunized, FIG. 2) amounted to 17 mice; in experiment [3] (of 16 mice immunized), 13 mice; in experiment [4] (of 11 mice immunized), 8 mice. Moreover, the “CTL lysis of targets transfected with full length λ6 gene” value in experiment [3] (setting [6]) was “lysed targets transfected with the gene for the full length λ6 protein”. In addition, the “CTL lysis of U266 target cells” value in experiment [4] (setting [6]) is “lysed U266 target cells pulsed with the λ6 peptide as well as U266 cells not pulsed with a peptide”.

Take FMLTQPHSV (also called λ62-10; Ig λ62-10) [lambda 6(2-10) peptide]: in experiment [5], the binding result is “binds”.

B1: heteroclitic lambda 6(2-10) peptide (peptide)
peptide: YMLTQPHSV
notes: Variant of the native lambda 6(2-10) peptide with one substitution at position 1 of the 9mer; also called het λ62-10; heteroclitic Ig λ62-10
As for B1, the binding result in experiment [5] was “binds”.
